Measurements from ChEMBL document CHEMBL4507318, “Data for DCP probe BAY-985” (2021).

Assays:
[1] = target: Cyclin-dependent kinase-like 3 (Homo sapiens) (UniProt Q8IVW4)
[2] = target: Rhodopsin kinase GRK7 (Homo sapiens) (UniProt Q8WTQ7)
[3] = target: Tyrosine-protein kinase receptor Tie-1 (Homo sapiens) (UniProt P35590)
[4] = target: MAP kinase-activated protein kinase 2 (Homo sapiens) (UniProt P49137)
[5] = tested on: eIF-2-alpha kinase GCN2 (Homo sapiens), Q9P2K8 [S808G]
[6] = target: Serine/threonine-protein kinase 3 (Homo sapiens) (UniProt Q13188)
[7] = target: Ephrin type-A receptor 4 (Homo sapiens) (UniProt P54764)
[8] = target: Ribosomal protein S6 kinase alpha-5 (Homo sapiens) (UniProt O75582)
[9] = target: Dual serine/threonine and tyrosine protein kinase (Homo sapiens) (UniProt Q6XUX3)
[10] = target: Serine/threonine-protein kinase WNK4 (Homo sapiens) (UniProt Q96J92)
[11] = target: Maternal embryonic leucine zipper kinase (Homo sapiens) (UniProt Q14680)
[12] = tested on: Tyrosine-protein kinase ABL1 (Homo sapiens), P00519 [E255K]
[13] = target: Myosin light chain kinase, smooth muscle (Homo sapiens) (UniProt Q15746)
[14] = target: Mitogen-activated protein kinase 14 (Homo sapiens) (UniProt Q16539)
[15] = target: 5-hydroxytryptamine receptor 1E (Homo sapiens) (UniProt P28566); conditions: Compound concentration 10.0 uM
[16] = target: Serine/threonine-protein kinase MRCK gamma (Homo sapiens) (UniProt Q6DT37)
[17] = target: Ribosomal protein S6 kinase beta-1 (Homo sapiens) (UniProt P23443)
[18] = target: Serine/threonine-protein kinase MRCK beta (Homo sapiens) (UniProt Q9Y5S2)
[19] = target: Vascular endothelial growth factor receptor 2 (Homo sapiens) (UniProt P35968)
[20] = target: Macrophage-stimulating protein receptor (Homo sapiens) (UniProt Q04912)
[21] = target: Cyclin-dependent kinase 14 (Homo sapiens) (UniProt O94921)
[22] = target: Serine/threonine-protein kinase TAO1 (Homo sapiens) (UniProt Q7L7X3)
[23] = target: Serine/threonine-protein kinase TBK1 (Homo sapiens) (UniProt Q9UHD2)
[24] = target: Glycogen synthase kinase-3 alpha (Homo sapiens) (UniProt P49840)
[25] = target: Mitogen-activated protein kinase kinase kinase kinase 5 (Homo sapiens) (UniProt Q9Y4K4)
[26] = target: Casein kinase I isoform epsilon (Homo sapiens) (UniProt P49674)
[27] = target: Serine/threonine-protein kinase BRSK2 (Homo sapiens) (UniProt Q8IWQ3)
[28] = target: Ephrin type-A receptor 1 (Homo sapiens) (UniProt P21709)
[29] = tested on: Epidermal growth factor receptor (Homo sapiens), P00533 [UNDEFINED MUTATION]
[30] = target: Serine/threonine-protein kinase ULK3 (Homo sapiens) (UniProt Q6PHR2)
[31] = target: Serine/threonine-protein kinase pim-1 (Homo sapiens) (UniProt P11309)
[32] = target: Serine/threonine-protein kinase 26 (Homo sapiens) (UniProt Q9P289)
[33] = target: Serine/threonine-protein kinase VRK2 (Homo sapiens) (UniProt Q86Y07)
[34] = target: Tyrosine-protein kinase Blk (Homo sapiens) (UniProt P51451)
[35] = target: Phosphatidylinositol 5-phosphate 4-kinase type-2 beta (Homo sapiens) (UniProt P78356)
[36] = target: Serine/threonine-protein kinase B-raf (Homo sapiens) (UniProt P15056)
[37] = tested on: ALK tyrosine kinase receptor (Homo sapiens), Q9UM73 [C1156Y]
[38] = target: Serine/threonine-protein kinase PAK 4 (Homo sapiens) (UniProt O96013)
[39] = target: Mitogen-activated protein kinase kinase kinase 12 (Homo sapiens) (UniProt Q12852)
[40] = target: Mitogen-activated protein kinase kinase kinase 14 (Homo sapiens) (UniProt Q99558)
[41] = target: Serine/threonine-protein kinase Sgk3 (Homo sapiens) (UniProt Q96BR1)
[42] = target: 5-hydroxytryptamine receptor 7 (Homo sapiens) (UniProt P34969); conditions: Compound concentration 10.0 uM
[43] = target: Mitogen-activated protein kinase kinase kinase 11 (Homo sapiens) (UniProt Q16584)
[44] = target: Activin receptor type-1-like (Homo sapiens) (UniProt P37023)
[45] = target: Casein kinase II subunit alpha' (Homo sapiens) (UniProt P19784)
[46] = Compound concentration 1000.0 nM
[47] = Compound concentration 100.0 nM

Sequence of 5-hydroxytryptamine receptor 7 (Homo sapiens) (P34969 whole entry): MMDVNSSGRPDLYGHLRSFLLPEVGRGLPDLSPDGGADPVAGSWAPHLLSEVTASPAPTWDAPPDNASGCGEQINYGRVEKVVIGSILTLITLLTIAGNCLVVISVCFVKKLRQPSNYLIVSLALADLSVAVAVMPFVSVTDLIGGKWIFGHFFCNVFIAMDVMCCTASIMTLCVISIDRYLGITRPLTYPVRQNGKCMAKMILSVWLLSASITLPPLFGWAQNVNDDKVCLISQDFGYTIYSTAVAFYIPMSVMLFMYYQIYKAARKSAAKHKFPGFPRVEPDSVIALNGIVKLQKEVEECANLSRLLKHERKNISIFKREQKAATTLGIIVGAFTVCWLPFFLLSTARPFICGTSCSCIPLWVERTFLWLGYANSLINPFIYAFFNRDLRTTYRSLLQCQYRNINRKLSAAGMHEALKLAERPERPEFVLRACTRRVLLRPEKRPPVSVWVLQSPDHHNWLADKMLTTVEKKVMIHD
Sequence of Cyclin-dependent kinase-like 3 (Homo sapiens) (Q8IVW4 whole entry, looked up): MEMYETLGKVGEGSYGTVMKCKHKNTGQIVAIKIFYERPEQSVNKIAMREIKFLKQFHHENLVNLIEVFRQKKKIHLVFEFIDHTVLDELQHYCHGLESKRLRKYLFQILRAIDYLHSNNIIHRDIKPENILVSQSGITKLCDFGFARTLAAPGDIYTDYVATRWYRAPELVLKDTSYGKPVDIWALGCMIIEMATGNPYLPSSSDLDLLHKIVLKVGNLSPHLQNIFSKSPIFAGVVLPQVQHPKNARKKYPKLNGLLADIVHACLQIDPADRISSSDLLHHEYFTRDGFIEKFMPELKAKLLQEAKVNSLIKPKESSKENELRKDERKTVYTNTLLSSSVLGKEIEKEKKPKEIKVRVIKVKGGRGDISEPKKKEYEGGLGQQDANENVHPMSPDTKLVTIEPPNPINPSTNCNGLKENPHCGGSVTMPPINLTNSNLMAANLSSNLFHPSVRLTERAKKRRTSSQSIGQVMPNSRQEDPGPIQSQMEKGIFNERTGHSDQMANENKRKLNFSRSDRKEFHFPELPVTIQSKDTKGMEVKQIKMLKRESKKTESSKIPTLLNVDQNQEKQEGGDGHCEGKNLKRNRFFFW
Sequence of Serine/threonine-protein kinase TBK1 (Homo sapiens) (Q9UHD2 whole entry): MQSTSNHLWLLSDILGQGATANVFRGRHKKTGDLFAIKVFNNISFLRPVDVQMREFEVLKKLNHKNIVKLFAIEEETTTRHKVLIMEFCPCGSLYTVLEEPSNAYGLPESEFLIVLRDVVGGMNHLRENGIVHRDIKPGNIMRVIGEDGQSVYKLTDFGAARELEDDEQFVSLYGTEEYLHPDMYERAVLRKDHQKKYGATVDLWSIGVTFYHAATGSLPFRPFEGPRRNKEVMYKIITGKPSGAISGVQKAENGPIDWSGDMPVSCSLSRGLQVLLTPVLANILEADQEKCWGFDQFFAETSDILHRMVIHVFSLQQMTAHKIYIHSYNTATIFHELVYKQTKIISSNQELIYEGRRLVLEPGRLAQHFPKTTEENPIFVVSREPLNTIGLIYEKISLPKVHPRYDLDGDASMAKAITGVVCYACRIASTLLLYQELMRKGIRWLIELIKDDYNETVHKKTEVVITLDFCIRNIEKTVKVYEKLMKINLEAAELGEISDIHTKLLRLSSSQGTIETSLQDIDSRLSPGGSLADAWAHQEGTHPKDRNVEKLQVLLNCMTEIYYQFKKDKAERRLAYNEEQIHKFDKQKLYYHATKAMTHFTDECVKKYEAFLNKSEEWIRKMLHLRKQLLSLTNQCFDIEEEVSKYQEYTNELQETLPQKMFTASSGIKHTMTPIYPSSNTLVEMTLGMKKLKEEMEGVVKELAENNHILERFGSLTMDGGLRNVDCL
Sequence of Serine/threonine-protein kinase WNK4 (Homo sapiens) (Q96J92 whole entry): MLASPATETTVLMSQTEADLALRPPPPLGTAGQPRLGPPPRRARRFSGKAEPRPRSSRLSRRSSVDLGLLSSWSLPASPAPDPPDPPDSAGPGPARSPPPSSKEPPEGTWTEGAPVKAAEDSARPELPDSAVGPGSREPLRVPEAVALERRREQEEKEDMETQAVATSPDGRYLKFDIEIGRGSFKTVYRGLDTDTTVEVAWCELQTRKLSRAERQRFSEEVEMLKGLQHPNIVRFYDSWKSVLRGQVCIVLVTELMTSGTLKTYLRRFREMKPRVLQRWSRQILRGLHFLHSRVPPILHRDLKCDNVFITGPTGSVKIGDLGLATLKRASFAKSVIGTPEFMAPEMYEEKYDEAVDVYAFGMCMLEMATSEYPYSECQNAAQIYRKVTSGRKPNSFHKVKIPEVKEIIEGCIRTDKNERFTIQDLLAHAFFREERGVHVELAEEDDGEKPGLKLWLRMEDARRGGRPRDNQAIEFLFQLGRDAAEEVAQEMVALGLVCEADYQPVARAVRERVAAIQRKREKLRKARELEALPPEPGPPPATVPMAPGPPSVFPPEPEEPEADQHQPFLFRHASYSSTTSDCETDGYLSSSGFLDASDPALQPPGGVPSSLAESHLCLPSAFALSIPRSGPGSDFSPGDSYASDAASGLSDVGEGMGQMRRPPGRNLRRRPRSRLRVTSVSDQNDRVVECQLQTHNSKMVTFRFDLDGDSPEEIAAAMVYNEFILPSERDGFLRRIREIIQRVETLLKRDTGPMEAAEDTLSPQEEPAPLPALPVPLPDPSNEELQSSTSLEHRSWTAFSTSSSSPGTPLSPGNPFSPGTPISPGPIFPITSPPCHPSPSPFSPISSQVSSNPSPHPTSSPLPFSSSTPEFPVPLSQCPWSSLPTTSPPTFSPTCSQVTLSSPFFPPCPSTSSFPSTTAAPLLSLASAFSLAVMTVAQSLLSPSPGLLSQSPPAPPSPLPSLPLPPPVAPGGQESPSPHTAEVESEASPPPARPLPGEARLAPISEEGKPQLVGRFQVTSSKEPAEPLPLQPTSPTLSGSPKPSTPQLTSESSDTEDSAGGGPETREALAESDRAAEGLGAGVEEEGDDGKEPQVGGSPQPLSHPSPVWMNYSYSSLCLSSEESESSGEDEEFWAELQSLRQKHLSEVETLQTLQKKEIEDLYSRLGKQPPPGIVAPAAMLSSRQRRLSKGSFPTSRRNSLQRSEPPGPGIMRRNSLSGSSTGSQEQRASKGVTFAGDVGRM
Sequence of 5-hydroxytryptamine receptor 1E (Homo sapiens) (P28566 whole entry): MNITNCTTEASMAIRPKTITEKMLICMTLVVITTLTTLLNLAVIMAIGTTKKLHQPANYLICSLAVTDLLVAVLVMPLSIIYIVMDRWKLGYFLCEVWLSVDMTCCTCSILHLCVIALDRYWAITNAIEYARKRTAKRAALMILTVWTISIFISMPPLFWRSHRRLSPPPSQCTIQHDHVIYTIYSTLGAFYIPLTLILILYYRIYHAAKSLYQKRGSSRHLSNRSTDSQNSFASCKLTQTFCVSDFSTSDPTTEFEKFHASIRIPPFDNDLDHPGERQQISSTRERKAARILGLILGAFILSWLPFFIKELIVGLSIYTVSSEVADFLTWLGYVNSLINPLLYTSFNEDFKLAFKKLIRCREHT
Sequence of eIF-2-alpha kinase GCN2 (Homo sapiens), Q9P2K8 [S808G] (Q9P2K8 whole entry S808G): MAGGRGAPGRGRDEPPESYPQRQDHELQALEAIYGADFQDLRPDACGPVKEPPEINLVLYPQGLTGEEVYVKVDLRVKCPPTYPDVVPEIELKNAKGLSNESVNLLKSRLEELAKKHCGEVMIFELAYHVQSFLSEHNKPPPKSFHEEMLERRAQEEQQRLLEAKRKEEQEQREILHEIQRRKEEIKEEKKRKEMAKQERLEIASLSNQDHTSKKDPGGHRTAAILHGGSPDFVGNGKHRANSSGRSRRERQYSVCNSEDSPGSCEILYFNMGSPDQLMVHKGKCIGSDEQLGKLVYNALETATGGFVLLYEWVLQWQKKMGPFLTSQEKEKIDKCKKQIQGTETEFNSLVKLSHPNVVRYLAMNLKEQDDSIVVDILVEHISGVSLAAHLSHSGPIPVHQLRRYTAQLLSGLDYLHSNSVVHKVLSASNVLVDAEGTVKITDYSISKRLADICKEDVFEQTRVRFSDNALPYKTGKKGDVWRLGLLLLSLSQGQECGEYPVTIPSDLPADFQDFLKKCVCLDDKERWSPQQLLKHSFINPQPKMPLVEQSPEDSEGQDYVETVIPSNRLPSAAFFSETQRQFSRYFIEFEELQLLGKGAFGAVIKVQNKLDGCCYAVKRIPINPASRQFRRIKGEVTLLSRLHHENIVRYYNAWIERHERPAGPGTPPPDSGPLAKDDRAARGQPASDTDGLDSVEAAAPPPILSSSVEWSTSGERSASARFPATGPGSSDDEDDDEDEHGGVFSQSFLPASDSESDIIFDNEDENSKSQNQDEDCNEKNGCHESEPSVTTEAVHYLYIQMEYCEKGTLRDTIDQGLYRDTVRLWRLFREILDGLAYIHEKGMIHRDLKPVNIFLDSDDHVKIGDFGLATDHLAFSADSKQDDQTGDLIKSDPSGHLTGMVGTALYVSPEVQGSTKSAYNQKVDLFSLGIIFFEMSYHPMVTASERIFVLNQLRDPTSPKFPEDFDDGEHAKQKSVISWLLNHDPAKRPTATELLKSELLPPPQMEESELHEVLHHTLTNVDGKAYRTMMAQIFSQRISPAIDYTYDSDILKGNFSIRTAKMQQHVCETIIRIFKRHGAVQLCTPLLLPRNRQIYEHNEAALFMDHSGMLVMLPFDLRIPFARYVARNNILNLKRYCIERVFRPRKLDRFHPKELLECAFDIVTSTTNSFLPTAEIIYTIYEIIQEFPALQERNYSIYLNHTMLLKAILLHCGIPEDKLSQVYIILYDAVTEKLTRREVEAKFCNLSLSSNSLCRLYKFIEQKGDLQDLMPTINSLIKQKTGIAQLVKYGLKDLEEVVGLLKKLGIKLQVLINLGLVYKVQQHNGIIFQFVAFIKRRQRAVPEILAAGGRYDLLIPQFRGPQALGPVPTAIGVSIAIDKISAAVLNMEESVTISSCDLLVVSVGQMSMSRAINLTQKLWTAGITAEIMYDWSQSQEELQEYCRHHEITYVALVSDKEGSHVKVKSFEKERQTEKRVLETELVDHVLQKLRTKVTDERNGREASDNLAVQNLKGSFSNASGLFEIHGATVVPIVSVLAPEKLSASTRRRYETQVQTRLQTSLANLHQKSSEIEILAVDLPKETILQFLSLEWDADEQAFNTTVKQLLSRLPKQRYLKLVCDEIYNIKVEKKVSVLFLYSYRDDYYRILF

CN(C)c1ncnc(-c2ccc3nc(Nc4cc(CN5CCN(C(=O)CC(F)(F)F)CC5)ccn4)[nH]c3c2)c1Cl [BAY-440]
inactive: residual activity [1, 46] 86% | residual activity [2, 46] 90% | residual activity [3, 46] 66% | residual activity [4, 46] 100% | residual activity [5, 46] 100% | residual activity [6, 46] 100% | residual activity [7, 46] 92% | residual activity [8, 46] 100% | residual activity [9, 46] 95% | residual activity [10, 46] 53% | residual activity [11, 46] 95% | residual activity [13, 46] 68% | residual activity [14, 46] 100% | inhibition [15] 29.3% | residual activity [16, 46] 100% | residual activity [17, 46] 92% | residual activity [18, 46] 96% | residual activity [19, 46] 74% | residual activity [20, 46] 98% | residual activity [21, 46] 100% | residual activity [22, 46] 77% | residual activity [24, 46] 75% | residual activity [25, 46] 100% | residual activity [26, 46] 100% | residual activity [27, 46] 100% | residual activity [28, 46] 100% | residual activity [29, 46] 88% | residual activity [30, 46] 61% | residual activity [31, 46] 100% | residual activity [32, 46] 91% | residual activity [33, 46] 88% | residual activity [34, 46] 82% | residual activity [35, 46] 52% | residual activity [36, 46] 83% | residual activity [37, 46] 59% | residual activity [38, 46] 100% | residual activity [39, 46] 64% | residual activity [40, 46] 62% | residual activity [41, 46] 72% | inhibition [42] 13.4% | residual activity [43, 46] 100% | residual activity [44, 46] 94% | residual activity [45, 46] 78%
active: residual activity [12, 46] 49% | residual activity [23, 46] 24%

C[C@H](c1ccnc(Nc2nc3ccc(-c4cc(N(C)C)ncn4)cc3[nH]2)c1)N1CCN(C(=O)CC(F)(F)F)CC1 [BAY-985]
inactive: residual activity [1, 47] 86% | residual activity [2, 47] 89% | residual activity [3, 47] 85% | residual activity [4, 47] 100% | residual activity [5, 47] 58% | residual activity [6, 47] 93% | residual activity [7, 47] 98% | residual activity [8, 47] 88% | residual activity [9, 47] 100% | residual activity [10, 47] 80% | residual activity [11, 47] 100% | residual activity [12, 47] 97% | residual activity [13, 47] 100% | residual activity [14, 47] 100% | inhibition [15] 13.6% | residual activity [16, 47] 79% | residual activity [17, 47] 100% | residual activity [18, 47] 100% | residual activity [19, 47] 100% | residual activity [20, 47] 80% | residual activity [21, 47] 100% | residual activity [22, 47] 100% | residual activity [24, 47] 100% | residual activity [25, 47] 96% | residual activity [26, 47] 100% | residual activity [27, 47] 100% | residual activity [28, 47] 99% | residual activity [29, 47] 96% | residual activity [30, 47] 90% | residual activity [31, 47] 79% | residual activity [32, 47] 100% | residual activity [33, 47] 94% | residual activity [34, 47] 79% | residual activity [35, 47] 75% | residual activity [36, 47] 100% | residual activity [37, 47] 100% | residual activity [38, 47] 81% | residual activity [39, 47] 100% | residual activity [40, 47] 100% | residual activity [41, 47] 100% | inhibition [42] 16.6% | residual activity [43, 47] 92% | residual activity [44, 47] 100% | residual activity [45, 47] 100%
active: residual activity [23, 47] 2.4%
